Data published in US5229409A, “6-substituted-tetrahydrobenz[cd]indoles” (Eli Lilly and Company, priority 1991, dated 1993).

Key:
[1] = biological target: T1, 5-HT1D receptor (Bos taurus, UniProt F1MGM3); assay: [3H]5-HT binding to 5-HT1D sites in caudate nuclei membranes; conditions: bovine caudate membranes, [3H]5-HT 1.7-1.9 nM, pH 7.4, 37° C
T1 construct: the caudate nuclei were dissected out and frozen at -70° C; tissue Pel-Freeze Biologicals; host or cells: bovine caudate nuclei, washed membranes
Description: The affinities of the compounds at the central 5-HT1D binding sites were determined using a modification of the binding assay described by Heuring and Peroutka (J. Neurosci. 7:894-903, 1987). Bovine brains were obtained from Pel-Freeze Biologicals, and the caudate nuclei were dissected out and frozen at -70° C. until the time that the membranes were prepared for the binding assays. At that time the tissues were homogenized in 40 volumes of ice-cold Tris-HCl buffer (50 mM, pH 7.4 at 22° C.) with a Techmar Tissumizer (setting 65 for 15 sec), and the homogenate was centrifuged at 39,800 g for 10 min. The resulting pellet was then resuspended in the same buffer, and the centrifugation and resuspension process was repeated three additional times to wash the membranes. Between the second and third washes the resuspended membranes were incubated for 10 min at 37° C. to facilitate the removal of endogenous 5-HT. the final pellet was resuspended in Tris buffer to a concentration of 25 mg of original tissue wet weight/ml for use in the binding assay. […] The assay tubes were incubated for 10 min at 37° C., and the contents were then rapidly filtered through GF/B filters (pretreated with 0.5% polyethylenimine), followed by four one-mL washes with ice-cold buffer. The radioactivity trapped by the filters was quantitated by liquid scintillation spectrometry, and specific [^3 H]5-HT binding to the 5HT1D sites were defined as the difference between [^3 H]5-HT bound in the presence and absence of 10 μM 5-HT.
The affinities of compounds at the 5-HT1D receptor are expressed as IC50 values, i.e., the concentration required to inhibit 50% of the binding. These values were determined from 12-point competition curves using nonlinear regression (SYSTAT, SYSTAT, Inc. Evanston, Ill.).

[2] = system: serum corticosterone; assay: serum corticosterone concentration in vivo in rats; parameters: species or system rat (male albino); conditions: 1 hour, series 0.03-3 mg/kg
Description: (§1) In another experiment certain compounds of the Examples were evaluated to determine ability to affect the 5-hydroxyindoles serotonin and 5-hydroxyindole acetic acid (5HIAA), and serum corticosterone, in vivo. Male albino rats were injected subcutaneously with an aqueous solution of the compound. The pH of the solution was adjusted as necessary to solubilize the compound. A control of the solution without the test compound was similarly injected into a control animal. The rats were decapitated one hour later. Trunk blood was collected and allowed to clot. After centrifugation, serum was stored frozen prior to analysis. The whole brain was removed and frozen on dry ice for storage prior to analysis. The serum corticosterone concentration was measured spectrofluorometrically using the procedure of Solem and Brinck-Johnson, "An Evaluation of a Method for Determination of Free Corticosteroids in Minute Quantities of Mouse Plasma", Scand. J. Clin. Lab. Invest., Suppl. 80, p. 1-14 (1965), incorporated herein by reference. 5-Hydroxyindoleacetic acid (5HIAA) concentration in whole brain was measured by liquid chromatography with electrochemical detection as reported by Fuller and Perry, "Effects of Buspirone and its Metabolite, 1-(2-pyrimidinyl)piperazine, on Brain Monoamines and Their Metabolites in Rats", J. Pharmacol. Exp. Ther., 248, p. 50-56 (1989), incorporated herein by reference.

[3] = system: serotonin; assay: whole brain serotonin concentration in vivo in rats; parameters: species or system rat (male albino); conditions: 1 hour, series 0.03-3 mg/kg
Description: as §1

[4] = biological target: T2, 5-HT1A receptor (Rattus norvegicus, UniProt P19327); assay: [3H]8-OH-DPAT binding to 5-HT1A sites in hippocampal membranes; parameters: species or system rat (male Sprague-Dawley); conditions: [3H]8-OH-DPAT 1.0 nM, pH 7.4, 37° C
T2 construct: the brains were rapidly chilled and dissected to obtain the hippocampi; from tissue; host or cells: hippocampi of male Sprague-Dawley rats (150-250 g), washed membranes
T2 sequence (P19327 1-422): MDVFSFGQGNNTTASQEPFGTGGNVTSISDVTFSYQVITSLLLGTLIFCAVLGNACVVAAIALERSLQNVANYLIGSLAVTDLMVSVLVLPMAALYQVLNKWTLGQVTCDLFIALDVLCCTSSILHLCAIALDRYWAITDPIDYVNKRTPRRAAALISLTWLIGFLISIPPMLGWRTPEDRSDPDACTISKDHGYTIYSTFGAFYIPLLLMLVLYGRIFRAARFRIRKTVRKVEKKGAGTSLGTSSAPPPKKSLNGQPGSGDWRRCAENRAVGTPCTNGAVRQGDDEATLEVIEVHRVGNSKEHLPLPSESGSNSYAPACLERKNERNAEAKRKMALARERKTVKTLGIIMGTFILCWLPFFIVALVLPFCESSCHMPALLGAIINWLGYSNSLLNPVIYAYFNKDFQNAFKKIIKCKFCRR
Description: The affinities of the compounds at the central […] described by Taylor, et al., (J. Pharmacol. Exp. Ther. 236:118-125, 1986). Membranes for the binding assay were prepared from male Sprague-Dawley rats (150-250 g). The animals were killed by decapitation, and the brains were rapidly chilled and dissected to obtain the hippocampi. The hippocampi were either prepared that day or stored frozen (-70° C.) until the day of preparation. Membranes were prepared by homogenizing the tissue in 40 volumes of ice-cold Tris-HCl buffer (50 mM, pH 7.4 at 22° C.) using a Techmar Tissumizer (setting 65 for 15 sec), and the homogenate was centrifuged at 39800 xg for 10 min. The resulting pellet then resuspended in the same buffer, and the centrifugation and resuspension process was repeated three additional times to wash the membranes. Between the second and third washes the resuspended membranes were incubated for 10 min at 37° C. to facilitate the removal of endogenous ligands. The final pellet was resuspended in 67 mM Tris-HCl, pH 7.4, to a concentration of 2 mg of tissue original wet weight/200 μl. This homogenate was stored frozen (-70° C.) until the day of the binding assay. […] The assay tubes were incubated for 10 min at 37° C, and the contents were then rapidly filtered through GF/B filters (pretreated with 0.5% polyethylenimine), followed by four one-mL washes with ice cold buffer. The radioactivity trapped by the filters was quantitated by liquid scintillation spectrometry, and specific [^3 H]8-OH-DPAT binding to the 5-HT1A sites was defined as the difference between [^3 H]8-OH-DPAT bound in the presence and absence of 10 μM 5-HT.
The affinity of the particular compound at the 5-HT1A receptor is expressed as IC50 value, i.e., the concentration required to inhibit 50% of the binding. The IC50 values were determined from 12-point competition curves using nonlinear regression (SYSTAT, SYSTAT, INC., Evanston, Ill.).

[5] = system: 5-hydroxyindole acetic acid (5HIAA); assay: whole brain 5-hydroxyindoleacetic acid (5HIAA) concentration in vivo in rats; parameters: species or system rat (male albino); conditions: 1 hour, series 0.03-3 mg/kg
Description: as §1, with “The rats were decapitated one hour later.” left out

T1 sequence (F1MGM3 1-403): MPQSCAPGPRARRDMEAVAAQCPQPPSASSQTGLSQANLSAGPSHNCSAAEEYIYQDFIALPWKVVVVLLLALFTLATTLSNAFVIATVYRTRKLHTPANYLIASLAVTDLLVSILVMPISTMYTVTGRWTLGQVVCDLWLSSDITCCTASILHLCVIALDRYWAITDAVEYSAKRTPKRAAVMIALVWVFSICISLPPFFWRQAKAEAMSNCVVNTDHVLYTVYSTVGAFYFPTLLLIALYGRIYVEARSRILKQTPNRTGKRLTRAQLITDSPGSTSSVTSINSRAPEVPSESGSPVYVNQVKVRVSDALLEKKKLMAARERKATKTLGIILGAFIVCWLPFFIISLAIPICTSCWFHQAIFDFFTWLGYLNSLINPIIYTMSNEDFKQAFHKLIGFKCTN

For `CCCN(CCC)C1Cc2c[nH]c3ccc(C(=O)C(C)(C)C)c(c23)C1` (racemic) [Example 1, (±)-6-(2,2-Dimethylpropanoyl)-4-(di-n-propylamino)-1,3,4,5-tetrahydrobenz[cd]indole], which IC50 [1] is on record?
The IC50 was 2.01 nM.

And the “Serum Corticosterone” value ([2]; 0.03 mg/kg s.c.)?
The value was 8.2 ± 3.2 microg./100 ml.

What about the “Serum Corticosterone” value ([2]; 0.3 mg/kg s.c.) of the same compound?
The value was 36.0 ± 4.8 microg./100 ml.

And the “Serum Corticosterone” value ([2]; 3 mg/kg s.c.)?
The value was 44.2 ± 1.5 microg./100 ml.

What about the Serotonin ([3]; 0.03 mg/kg s.c.) of the same compound?
Its Serotonin is 3.15 ± 0.13 nmol/g.

And the Serotonin ([3]; 0.3 mg/kg s.c.)?
The Serotonin was 3.45 ± 0.10 nmol/g.

What about the Serotonin ([3]; 3 mg/kg s.c.) of the same compound?
The Serotonin was 3.38 ± 0.08 nmol/g.

And the IC50 [4]?
Its IC50 is 0.5 nM.

What about the 5HIAA ([5]; 0.03 mg/kg s.c.) of the same compound?
Its 5HIAA is 1.58 ± 0.05 nmol/g.

What about the 5HIAA ([5]; 0.3 mg/kg s.c.) of the same compound?
The 5HIAA was 1.31 ± 0.03 nmol/g.

And the 5HIAA ([5]; 3 mg/kg s.c.)?
The 5HIAA was 1.23 ± 0.04 nmol/g.

For `CCCN(CCC)[C@H]1Cc2c[nH]c3ccc(C(=O)c4ccccc4)c(c23)C1` [Example 10, (4R)-(+)-6-benzoyl-4-(di-n-propylamino)-1,3,4,5-tetrahydrobenz[cd]indole], which IC50 [1] is on record?
The IC50 was 1.81 nM.

What about the IC50 [4] of the same compound?
Its IC50 is 0.22 nM.
